Laboratory results published in ChEMBL document CHEMBL6074643, “Harnessing dual-mode RIPK1 ligands for cross-species anti-necroptosis inhibitor compounds” (Bioorg Med Chem Lett, 2024).
Active and inactive are the calls of the source. No cut-off for these calls is given here.

What was measured:
[1] = Intrinsic clearance in human liver microsomes measured per mg protein; type: ADME, Microsome; details: read-out: CLH
[2] = biological target: T1, Receptor-interacting serine/threonine-protein kinase 1 (Homo sapiens, UniProt Q13546); assay: Inhibition of human RIPK1 by ADP-Glo kinase assay
T1 sequence (Q13546 whole entry): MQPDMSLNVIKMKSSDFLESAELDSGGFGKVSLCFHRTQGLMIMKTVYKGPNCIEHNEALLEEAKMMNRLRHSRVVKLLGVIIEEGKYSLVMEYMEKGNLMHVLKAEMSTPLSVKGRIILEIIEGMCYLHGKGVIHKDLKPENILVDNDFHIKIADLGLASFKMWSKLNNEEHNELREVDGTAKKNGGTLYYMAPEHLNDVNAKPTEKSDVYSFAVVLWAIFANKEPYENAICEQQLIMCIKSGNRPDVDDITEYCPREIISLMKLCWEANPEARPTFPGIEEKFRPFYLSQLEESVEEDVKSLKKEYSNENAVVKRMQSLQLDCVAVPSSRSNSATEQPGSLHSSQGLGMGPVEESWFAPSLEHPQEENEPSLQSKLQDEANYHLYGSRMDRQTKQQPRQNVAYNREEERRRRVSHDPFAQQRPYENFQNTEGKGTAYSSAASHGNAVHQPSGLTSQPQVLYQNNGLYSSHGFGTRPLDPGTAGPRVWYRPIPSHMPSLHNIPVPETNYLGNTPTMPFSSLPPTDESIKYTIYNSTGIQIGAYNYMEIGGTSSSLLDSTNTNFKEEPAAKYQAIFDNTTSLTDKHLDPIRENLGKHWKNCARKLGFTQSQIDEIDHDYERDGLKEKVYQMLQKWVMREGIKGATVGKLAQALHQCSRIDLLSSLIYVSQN

[3] = Intrinsic clearance in mouse liver microsomes measured per mg protein; type: ADME, Microsome; details: read-out: CLH
[4] = Plasma concentration in non-fasted NMRI mouse at 10 mg/kg, po measured after 0.5 hrs by HPLC-MS analysis; type: ADME, organism-based
[5] = Plasma concentration in non-fasted NMRI mouse at 10 mg/kg, po measured after 2 hrs by HPLC-MS analysis; type: ADME, organism-based
Mus musculus = assay: In vivo inhibition of RIPK1 in TNF-alpha-induced acute hypothermia NMRI mouse model assessed as decrease in TNF-alpha-induced severe core body temperature loss at 30 mg/kg, po administered 15 mins prior to TNF-alpha challenge and measured at 90 mins interval for 6 hrs; type: functional, organism-based; details: time 375.0 min

CN1C(=O)C(C(=O)Nc2cn(Cc3ccccc3)cn2)CCc2cc(C#CC(C)(C)O)ccc21 (configuration not stated) gave a microsomal CLint [1] of 6.6 µL/min/mg, a Ki [2] of 251 nM and a microsomal CLint [3] of 29.4 µL/min/mg.
Molecule CN1C(=O)C(C(=O)Nc2cn(Cc3ccccc3)cn2)CCc2cc(Br)ccc21 (configuration not stated) has a microsomal CLint [1] of 31.1 µL/min/mg, a Ki [2] of 363 nM and a microsomal CLint [3] of 176 µL/min/mg.
CC(=O)NC(C)(C)C#Cc1ccc2c(c1)N(C)C(=O)C(C(=O)Nc1cn(Cc3ccccc3)cn1)CC2 (configuration not stated) showed a microsomal CLint [1] of 7.7 µL/min/mg, a Ki [2] of 27.5 nM and a microsomal CLint [3] of 29 µL/min/mg.
CN1C(=O)C(C(=O)Nc2cn(Cc3ccccc3)cn2)CCc2cc(C#CC3(O)COC3)ccc21 (configuration not stated) showed a microsomal CLint [1] of 18.2 µL/min/mg, a Ki [2] of 191 nM and a microsomal CLint [3] of 42.2 µL/min/mg.
In the case of CC(C)C#Cc1ccc2c(c1)N(C)C(=O)C(C(=O)Nc1cn(Cc3ccccc3)cn1)CC2 (configuration not stated), the microsomal CLint [1] is reported as 99 µL/min/mg, the Ki [2] is reported as 75.9 nM and the microsomal CLint [3] is reported as 693 µL/min/mg.
CN1C(=O)C(C(=O)Nc2cn(Cc3ccccc3)cn2)CCc2ccc(Br)cc21 (configuration not stated) gave a microsomal CLint [1] of 75.7 µL/min/mg, a Ki [2] of 87.1 nM and a microsomal CLint [3] of 211 µL/min/mg.
CN1C(=O)C(C(=O)Nc2cn(Cc3ccccc3)cn2)CCc2ccc(C#CC(C)(C)O)cc21 (racemic) showed a microsomal CLint [1] of 26.5 µL/min/mg, a Ki [2] of 58.9 nM and a microsomal CLint [3] of 158 µL/min/mg.
Molecule CN1C(=O)[C@@H](NC(=O)c2nnc(Cc3ccccc3)[nH]2)COc2cccnc21 [ECLITASERTIB] has a Ki [2] of 2 nM.
With CN1C(=O)[C@@H](C(=O)Nc2cn(Cc3ccccc3)cn2)CCc2ccc(C#CC(C)(C)O)cc21 the concentration at 0.5 h [4] was 1340 nM, the microsomal CLint [1] was 7.6 µL/min/mg and the Ki [2] was 11.5 nM. For the same molecule, the concentration at 2 h [5] was 329 nM, the microsomal CLint [3] was 33 µL/min/mg and the inhibition (Mus musculus) was “Active”.
Work on CN1C(=O)C(C(=O)Nc2cn(Cc3ccccc3)cn2)CCc2ccc(C#CC3CCOCC3)cc21 (configuration not stated) yielded a microsomal CLint [1] of 106 µL/min/mg, a Ki [2] of 22.4 nM and a microsomal CLint [3] of 234 µL/min/mg.
Work on CN1C(=O)C(C(=O)Nc2cn(Cc3ccccc3)cn2)CCc2ccc(C#CC3CC3)cc21 (configuration not stated) yielded a microsomal CLint [1] of 66.5 µL/min/mg, a Ki [2] of 28.8 nM and a microsomal CLint [3] of 300 µL/min/mg.
For CN1C(=O)C(C(=O)Nc2cn(Cc3ccccc3)cn2)CCc2ccc(C#CC3(O)COC3)cc21 (configuration not stated), the microsomal CLint [1] was 44.4 µL/min/mg, the Ki [2] was 38 nM and the microsomal CLint [3] was 128 µL/min/mg.
In the case of CN1C(=O)C(C(=O)Nc2cn(Cc3ccccc3)cn2)CCc2ccc(C#CC3(C)COC3)cc21 (configuration not stated), the microsomal CLint [1] is reported as 124 µL/min/mg, the Ki [2] is reported as 28.2 nM and the microsomal CLint [3] is reported as 238 µL/min/mg.
Molecule CN1C(=O)[C@H](C(=O)Nc2cn(Cc3ccccc3)cn2)CCc2ccc(C#CC(C)(C)O)cc21 has a microsomal CLint [1] of 32.7 µL/min/mg, a Ki [2] of 398 nM and a microsomal CLint [3] of 202 µL/min/mg.
In the case of CC#Cc1ccc2c(c1)N(C)C(=O)C(C(=O)Nc1cn(Cc3ccccc3)cn1)CC2 (configuration not stated), the microsomal CLint [1] is reported as 105 µL/min/mg, the Ki [2] is reported as 35.5 nM and the microsomal CLint [3] is reported as 312 µL/min/mg.
Molecule COC(C)(C)C#Cc1ccc2c(c1)N(C)C(=O)C(C(=O)Nc1cn(Cc3ccccc3)cn1)CC2 (configuration not stated) has a microsomal CLint [1] of 194 µL/min/mg, a Ki [2] of 25.7 nM and a microsomal CLint [3] of 210 µL/min/mg.
Molecule CN1C(=O)C(C(=O)Nc2cn(Cc3ccccc3)cn2)CCc2ccc(C#CC(C)(C)N)cc21 (configuration not stated) has a microsomal CLint [1] of 21.1 µL/min/mg, a Ki [2] of 66.1 nM and a microsomal CLint [3] of 50.8 µL/min/mg.
